Source: ChEMBL document CHEMBL5247670, “TMPRSS2 Inhibitor Discovery Facilitated through an In Silico and Biochemical Screening Platform” (ACS Med Chem Lett, 2023)
Activity calls are given as the source filed them. The rule behind the calls is not given here.

What was measured:
[1] = target: Transmembrane protease serine 2 (Homo sapiens, UniProt O15393); experiment: Inhibition of TMPRSS2 (106 to 492 residues) (unknown origin) using Boc-QAR-AMC as substrate measured for 20 mins by spectrophotometer analysis
Chain of Transmembrane protease serine 2 (O15393 1-255 limits assumed): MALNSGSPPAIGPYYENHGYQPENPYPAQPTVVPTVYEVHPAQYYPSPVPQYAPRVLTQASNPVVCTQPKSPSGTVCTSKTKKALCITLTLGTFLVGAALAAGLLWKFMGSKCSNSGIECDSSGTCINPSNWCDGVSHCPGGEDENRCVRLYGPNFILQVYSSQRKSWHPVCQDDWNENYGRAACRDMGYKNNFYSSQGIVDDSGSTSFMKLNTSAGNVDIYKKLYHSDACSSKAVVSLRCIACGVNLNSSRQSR
Chain of Transmembrane protease serine 2 (O15393 256-492 limits assumed): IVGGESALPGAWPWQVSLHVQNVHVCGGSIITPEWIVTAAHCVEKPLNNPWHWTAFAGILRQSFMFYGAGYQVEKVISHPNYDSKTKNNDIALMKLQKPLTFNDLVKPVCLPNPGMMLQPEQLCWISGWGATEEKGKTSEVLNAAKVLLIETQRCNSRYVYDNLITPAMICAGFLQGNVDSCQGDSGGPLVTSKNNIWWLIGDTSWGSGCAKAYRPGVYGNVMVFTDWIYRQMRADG

[2] = system: Calu-3; experiment: Cytotoxicity against human Calu-3 cells assessed as reduction in cell viability; assay type: functional
[3] = system: SARS-CoV-2; experiment: Antiviral activity against SARS-CoV-2 B.1.1.7 infected in human Calu-3 cells assessed as inhibition of viral infection preincubated for 1 hr followed by viral infection measured after 48 hrs by Hoechst 33342 staining based analysis; assay type: functional, organism-based; settings: Severe acute respiratory syndrome coronavirus 2, B.1.1.7, Calu-3
[4] = system: SARS-CoV-2; experiment: Antiviral activity against SARS-CoV-2 B.1.1.7 infected in human Caco-2 cells assessed as inhibition of viral infection preincubated for 1 hr followed by viral infection measured after 48 hrs by Hoechst 33342 staining based analysis; assay type: functional, organism-based; settings: Severe acute respiratory syndrome coronavirus 2, time 49.0 hrs
[5] = system: Calu-3; experiment: Cytotoxicity against human Calu-3 cells assessed as reduction in cell viability upto 500 uM measured after 48 hrs by Hoechst 33342 staining based analysis; assay type: toxicity; settings: calu-3, 48 h

Structure (SMILES): N=C(N)N1CCc2cc(NC(=O)c3ccc4ccccc4c3)ccc2C1
- IC50 [1]: 4 µM

Structure (SMILES): N=C(N)c1ccc(OCCCOc2ccc(C(=N)N)cc2)cc1 [PROPAMIDINE]
- CC50 [2]: > 500 µM

Structure (SMILES): N=C(N)N1CCc2ccccc2C1 [DEBRISOQUIN]
- IC50 [3]: 22 µM
- CC50 [2]: > 500 µM
- IC50 [1]: 23 µM
- Activity [4]: inactive
- Activity [5]: Non-Toxic

Structure (SMILES): Cc1ccc(C(=O)Nc2ccc3c(c2)CCN(C(=N)N)C3)cc1
- IC50 [1]: 4 µM

Structure (SMILES): N=C(N)N1CCc2cc(NC(=O)c3cccc4ccccc34)ccc2C1
- IC50 [1]: 3.4 µM
